Laboratory results reported in patent US9253983B2, “Triazole compound and use thereof” (KUREHA CORPORATION, priority 2011, dated 2016).

Columns and labels:
Alternaria alternata = assay: Test 1 for antifungal effect, plate medium: A.m; type: cell-based; details: PDA plate medium
Procedure: (§1) Compound (1-1a) or Compound (1-2a) was dissolved in dimethyl sulfoxide, and the resulting solution was added to a PDA medium (potato dextrose-agar medium) at about 60° C. The medium and the solution were mixed thoroughly in a conical flask, poured into a petri dish, and allowed to solidify. In this way, a plate medium containing Compound (1-1a) or Compound (1-2a) at a certain concentration was prepared.
(§2) Meanwhile, test microorganisms cultured on a plate medium in advance were cut out with the use of a cork borer 4 mm in diameter, and were inoculated onto the compound-containing plate medium. After the inoculation, the microorganisms were cultured at their optimum growth temperatures (for example, refer to LIST OF CULTURES 1996 microorganisms 10th edition, Institute for Fermentation (foundation)) for 1 day to 7 days, and their growth was determined by measuring the diameter of their flora. The extent of growth of the microorganisms on the compound-containing plate medium was compared with that of microorganisms on a plate medium where no compound was added, and mycelial growth inhibition rate was calculated by the following equation: R=100(dc−dt)/dc where R is mycelial growth inhibition rate (%), dc is the flora diameter in untreated plate, and dt is the flora diameter in plate treated with the compound.
(§3) A larger antifungal index indicates a better antifungal effect.

rice Bakanae disease = assay: Efficacy of seed treatment on rice Bakanae disease; type: in vivo, Gibberella fujikuroi; details: rice seed treatment 80 g ai/100 kg seeds, 20 days after sowing
Procedure: A pot experiment was performed to evaluate the effectiveness of the seed treatment in controlling rice Bakanae disease. Compound (1-1a), which was dissolved in DMSO to make up such a concentration that the seeds would be treated in treatment amount of 80 g ai/100 kg seeds, was applied in a vial to seeds of a rice plant infected with rice Bakanae disease, and thereafter 16 rice plant seeds were sowed in a 50-cm^2 pot. The pot was kept in a greenhouse with water supplied to its bottom. 20 days after the sowing, examination was conducted on the percentage of seedlings infected with […]. Then, protective values were calculated as were in Experiment Example 4.

Cercospora beticola = assay: Test 1 for antifungal effect, plate medium: C.b; type: cell-based; details: PDA plate medium
Procedure: as §1, §2, §3

[1] = tested on: Erysiphe graminis f. sp tritici; assay: Controlling effect on wheat powdery mildew by foliage spray treatment (Tests 1 and 2); type: in vivo; details: foliage spray 12.5 mg/L, 1,000 L/ha
Excerpt: The suspension was sprayed at 1,000 L/ha to leaves of wheat plants (cultivar: NORIN No. 61) in their second leaf stage. The wheat plants had been grown in square plastic pots (6 cm×6 cm). After the suspension was left to dry, the plants were inoculated with Erysiphe graminis f. sp tritici taken from wheat plants infected with wheat powdery mildew, by sprinkling. 8 days and 11 days after the inoculation, the lesion degree of the wheat powdery mildew was examined in accordance with the criteria shown in Table 4. The protective values were found in the same way as in Experiment Example 2.
The suspension was sprayed at 1,000 L/ha to leaves of wheat plants (cultivar: NORIN No. 61) in their second leaf stage. The wheat plants had been grown in square plastic pots (6 cm×6 cm). After the leaves were air-dried, they were inoculated with Erysiphe graminis f. sp tritici taken from wheat plants infected with wheat powdery mildew, by sprinkling. 8 days after the inoculation, the lesion degree of the wheat powdery mildew was examined. The protective values were calculated as were in Experiment Example 1.

rice plant [2] = assay: Growth inhibition (adverse effects) of seed treatment on rice plant seeds; type: in vivo; details: treatment amount 80 g ai/100 kg seeds, 20 days after sowing
Procedure: A pot experiment was performed to evaluate the growth inhibition (adverse effects) caused by the seed treatment. Compound (1-1a) and Compound (1-2a), each of which was dissolved in DMSO to make up such a concentration that the seeds would be treated in treatment amount of 2 g to 200 g ai/100 kg seeds, were each applied to wheat seeds in a vial, and thereafter 8 wheat seeds were sowed in an 80-cm^2 pot. The pot was kept in a greenhouse with water supplied to its bottom. 20 days after the sowing, a growth measure of wheat was evaluated. A growth inhibition index was calculated based on the criteria shown by Table 10. In Table 10, a smaller growth inhibition index indicates a lesser adverse effect of growth inhibition caused by the treatment with the use of a plant disease controlling agent.
(§4) A pot experiment was performed to evaluate the growth inhibition (adverse effects) caused by the seed treatment. Compound (1-1a), which was dissolved in DMSO to make up such a concentration that the seeds would be treated in treatment amount of 80 g ai/100 kg seeds, was applied to rice plant seeds in a vial, and thereafter 16 rice plant seeds were sowed in a 50-cm^2 pot. The pot was kept in a greenhouse with water supplied to its bottom. 20 days after the sowing, a growth measure of rice plant was evaluated. A growth inhibition index was calculated as was in Experiment Example 5.

[3] = tested on: Pseudocercoporella herpotrichoides; assay: Test 1 for antifungal effect, plate medium: P.h; type: cell-based; details: PDA plate medium
Procedure: as §1, §2, §3

Rhizoctonia solani = assay: Test 1 for antifungal effect, plate medium: R.s; type: cell-based; details: PDA plate medium
Procedure: as §1, §2, §3

rice plant [4] = assay: Necrosis (adverse effects) of seed treatment on rice plant seeds; type: in vivo; details: treatment amount 80 g ai/100 kg seeds, 20 days after sowing
Procedure: A pot experiment was performed to evaluate necrosis (adverse effects) caused by the seed treatment. Compound (1-1a) and Compound (1-2a), each which was dissolved in DMSO to make up such a concentration that the seeds would be treated in treatment amount of 2 g to 200 g ai/100 kg seeds, were each applied to wheat seeds in a vial, and thereafter 8 wheat seeds were sowed in an 80-cm^2 pot. The pot was kept in a greenhouse with water supplied to its bottom. 20 days after the sowing, an extent of necrosis (percentage of necrotic surface area) of wheat was evaluated. A necrosis index was derived from the percentage of the necrotic surface area, based on the criteria shown by Table 13. In Table 13, a smaller necrosis index indicates a lesser adverse effect of necrosis caused by the treatment with the use of a plant disease controlling agent.
as §4, with “necrosis” for “the growth inhibition”, “The pot was kept in a greenhouse with water supplied to its bottom.” left out, “an extent of necrosis (percentage of necrotic surface area)” for “a growth measure”, “necrosis” for “growth inhibition”, “6.” for “5.”

| Structure (SMILES) | Antifungal index (mycelial growth inhibition rate) (Alternaria alternata; 0.16 mg/L) | Antifungal index (mycelial growth inhibition rate) (Alternaria alternata; 0.31 mg/L) | Antifungal index (mycelial growth inhibition rate) (Alternaria alternata; 0.63 mg/L) | Antifungal index (mycelial growth inhibition rate) (Alternaria alternata; 1.25 mg/L) | Antifungal index (mycelial growth inhibition rate) (Alternaria alternata; 2.50 mg/L) | Protective value (%) (rice Bakanae disease) | Antifungal index (mycelial growth inhibition rate) (Cercospora beticola; 0.16 mg/L) | Antifungal index (mycelial growth inhibition rate) (Cercospora beticola; 0.31 mg/L) | Antifungal index (mycelial growth inhibition rate) (Cercospora beticola; 0.63 mg/L) | Antifungal index (mycelial growth inhibition rate) (Cercospora beticola; 1.25 mg/L) | Antifungal index (mycelial growth inhibition rate) (Cercospora beticola; 2.50 mg/L) | Protective value (%) (8 days after treatment) [1] | Protective value (%) (11 days after treatment) [1] | Growth inhibition index (rice plant [2]) | Antifungal index (mycelial growth inhibition rate) ([3]; 0.16 mg/L) | Antifungal index (mycelial growth inhibition rate) ([3]; 0.31 mg/L) | Antifungal index (mycelial growth inhibition rate) ([3]; 0.63 mg/L) | Antifungal index (mycelial growth inhibition rate) ([3]; 1.25 mg/L) | Antifungal index (mycelial growth inhibition rate) ([3]; 2.50 mg/L) | Antifungal index (mycelial growth inhibition rate) (Rhizoctonia solani; 0.16 mg/L) | other results |
| --- | --- | --- | --- | --- | --- | --- | --- | --- | --- | --- | --- | --- | --- | --- | --- | --- | --- | --- | --- | --- | --- |
| CC1(CCl)CCC(Cc2ccc(Cl)cc2)C1(O)Cn1cncn1 (single isomer, unassigned) [Compound (1-1a), (1,2-cis, 1,5-cis)-5-(4-chlorobenzyl)-2-chloromethyl-2-methyl-1-(1H-1,2,4-triazole-1-ylmethyl)cyclopentanol] | 1 (Less than 60%) | 4 (Less than 90% but not less than 80%) | 4 (Less than 90% but not less than 80%) | 5 (90% or greater) | 5 (90% or greater) | 100 | 4 (Less than 90% but not less than 80%) | 5 (90% or greater) | 5 (90% or greater) | 5 (90% or greater) | 5 (90% or greater) | 96 | 84 | 0 (50% or more) | 1 (Less than 60%) | 5 (90% or greater) | 5 (90% or greater) | 5 (90% or greater) | 5 (90% or greater) | 2 (Less than 70% but not less than 60%) | Antifungal index (mycelial growth inhibition rate) (Rhizoctonia solani; 0.31 mg/L): 2 (Less than 70% but not less than 60%); Antifungal index (mycelial growth inhibition rate) (Rhizoctonia solani; 0.63 mg/L): 2 (Less than 70% but not less than 60%); Antifungal index (mycelial growth inhibition rate) (Rhizoctonia solani; 1.25 mg/L): 2 (Less than 70% but not less than 60%); Antifungal index (mycelial growth inhibition rate) (Rhizoctonia solani; 2.50 mg/L): 3 (Less than 80% but not less than 70%); Necrosis index (rice plant [4]): 0 (Less than 1%) |
| CC1(CCl)CCC(Cc2ccc(Cl)cc2)C1(O)Cn1cncn1 (single isomer, unassigned) [Compound (1-1b), (1,2-cis, 1,5-cis)-5-(4-chlorobenzyl)-2-chloromethyl-2-methyl-1-(1H-1,2,4-triazole-1-ylmethyl)cyclopentanol] | 1 (Less than 60%) | 3 (Less than 80% but not less than 70%) | 4 (Less than 90% but not less than 80%) | 4 (Less than 90% but not less than 80%) | 5 (90% or greater) | 66 | 3 (Less than 80% but not less than 70%) | 4 (Less than 90% but not less than 80%) | 5 (90% or greater) | 5 (90% or greater) | 5 (90% or greater) | 71 | 58 | 4 (Less than 20% but 10% or more) | 1 (Less than 60%) | 1 (Less than 60%) | 2 (Less than 70% but not less than 60%) | 3 (Less than 80% but not less than 70%) | 4 (Less than 90% but not less than 80%) | 1 (Less than 60%) | Antifungal index (mycelial growth inhibition rate) (Rhizoctonia solani; 0.31 mg/L): 1 (Less than 60%); Antifungal index (mycelial growth inhibition rate) (Rhizoctonia solani; 0.63 mg/L): 2 (Less than 70% but not less than 60%); Antifungal index (mycelial growth inhibition rate) (Rhizoctonia solani; 1.25 mg/L): 2 (Less than 70% but not less than 60%); Antifungal index (mycelial growth inhibition rate) (Rhizoctonia solani; 2.50 mg/L): 2 (Less than 70% but not less than 60%); Necrosis index (rice plant [4]): 2 (Less than 20% but not less than 5%) |
